Source: US20230049350A1, “COMPOUNDS FOR TREATING BRAIN CANCER” (Purdue Pharmaceutical Products L.P., priority 2014, published 2023)
Read-outs that look alike come from different tables or passages of the source.

Legend:
[1] = tested on: U87; experiment: Clonogenic survival with radiotherapy, U87; format: cell-based; conditions: 2.5 µM or 5 µM, 24 hr, plus radiotherapy, FIG. 10
Experimental: (§1) In a first experiment, U251, U87 and T98G cell lines were treated with radiotherapy alone or with radiotherapy and EDO-S101.
(§2) For clonogenic survival, exponentially growing cells (70% confluence) were cultured in regular media and treated with EDO-S101 at the appropriate concentrations, or vehicle (final DMSO concentration of 0.1%) for 24 hr. Tumour cell irradiation was done using a 6 MV linear accelerator Elekta Synergy using a clinically calibrated irradiation field of 30 × 30 cm. Two cm thick plates of perspex were positioned above and below the cell culture flasks completely filled with medium to compensate for the build-up effect. Non-irradiated controls were handled identically to the irradiated cells with the exception of the radiation exposure. […] Colonies containing more than 50 cells were counted. The plating efficiency (PE) was calculated as the number of colonies observed/the number of cell plated. The surviving fraction was calculated as the number of colonies formed in the treated dishes compared with the number formed in the control. The survival curves were analyzed using SPSS (Chicago, IL) statistical software by means of a fit of the data by a weighted, stratified, linear regression, according to the linear-quadratic formula: S(D)/S(O)=exp-(aD+bD2).

[2] = tested on: U251 tumours; experiment: Mice with implanted U251 tumours, time to progression (Example 3); format: in vivo; conditions: 60 mg/kg iv days 1, 8 and 15, FIG. 8
Experimental: (§3) The above procedure was followed in similar manner using the cell lines U87G and U251G. Once again, EDO-S101 (60 mg/kg) was administered intravenously via the tail vein, but in these experiments it was administered at days 1, 8 and 15. In place of bendamustime, TMZ was administered as a comparison at 16 mg/kg for 5 consecutive days, po. The mice were sacrificed after 28 days.

[3] = tested on: T98G; experiment: Clonogenic survival with radiotherapy, T98G; format: cell-based; conditions: 2.5 µM or 5 µM, 24 hr, plus radiotherapy, FIG. 10
Experimental: as §1, §2

[4] = CNS pharmacokinetics by blood and brain-ventricle microdialysis, CE-UV; format: in vivo, Sprague-Dawley Rats; conditions: Sprague-Dawley, rat; for Cmax: intravenous, 40 mg/kg tail vein injection; for AUC(0-t): read-out: AUC (0-12) (converted); for half-life: iv, 40 mg/kg
Experimental: CNS pharmacokinetics was determined in rats after a tail vein injection of EDO-S101 at 40 mg/kg. Microdialysate samples were collected from the blood and a ventricle of the brain via microdialysis probes at 18 time intervals. The drug concentrations in these samples were determined by capillary electrophoresis with UV detection (CE-UV) followed by calculations for various pharmacokinetic parameters.
Six rats were anesthetized with gasiform isoflurane (1% isoflurane in a mixture of 20% oxygen and 80% nitrogen gas) and immobilized in a stereotaxic frame (KOPF Instruments, Tujunga, CA). Anaesthesia was maintained during the entire procedure. Each guide cannula (CMA Microdialysis Inc., Acton, MA) was stereotactically implanted into the lateral ventricle (AP -0.9, L 1.6, V 3.4, relative to bregma and skull), then secured to the skull by screws and dental cement. Following surgery, each rat was housed individually with food and water ad libitum for 3 days for recovery from cannulation surgery. Microdialysis experiments were carried out on conscious, freely moving rat. On the day of the experiment, the stylet in the guide cannula was replaced with the microdialysis probe (CMA/11 with 4 mm membrane, CMA Microdialysis Inc., Acton, MA) and a vascular microdialysis probe (CMA/20 with 4 mm membrane, CMA Microdialysis Inc, Acton, MA)) was implanted into the jugular vein. The probes had inlet tubes connected to syringes to deliver artificial cerebrospinal fluid (146 mM NaCl, 1.2 mM CaCl2, 3 mM KCI, 1 mM MgCl2, 1.9 mM Na2HPO4, 0.1 mM NaH2PO4, pH 7.4) into the ventricle and Dulbecco’s phosphate-buffered saline (D-PBS) into the blood at 0.5 µl/min flow rate. The outlet tubes were connected to a microfraction collector for collecting the microdailysates at 4° C. The rats were allowed to recover for at least 24 hours prior to dosing. Eighteen samples were collected over 3 hours after EDO-S101 injection (intravenously). All samples were applied to the capillary electrophoresis with UV detection (CE-UV) for the determination of concentration of EDO-S101 in the cerebrospinal fluid (CSF) and blood. The rats were sacrificed using CO2 inhalation after the experiment. The position of the probe was verified by visual inspection at the end of each experiment.
EDO-S101 in the microdialysate were measured by CE-UV (Agilent 3D CE). Briefly, the capillaries were preconditioned with 1 M sodium hydroxide for 2 min, water for 2 min and running buffer [100 mmol/l solution of ammonium acetate (adjust to pH 3.1 with acetic acid)-acetonitrile (50:50, v/v) ] for 3 min. The samples were injected at a pressure of 0.7 psi for 5 s and the injection volume was approximately 5 nl. After injection, EDO-S101 was separated in a fused silica capillary of 50 µm I.D. and 50/65 cm length (effective length/total length) under 15 kv and 25° C. The absorbance from EDO-S101 was detected with UV at […]. […].
To perform a statistical analysis on the data, a two-way repeated measures ANOVA followed by Tukey’s test was used. P<0.05 was considered significant. CNS penetration is determined as the ratio of CSF and blood area under the curve (AUC).

[5] = tested on: U251; experiment: Clonogenic survival with radiotherapy, U251; format: cell-based; conditions: 2.5 µM or 5 µM, 24 hr, plus radiotherapy, FIG. 10
Experimental: as §1, §2

[6] = tested on: U87 tumours; experiment: Mice with implanted U87 tumours, time to progression (Example 3); format: in vivo; conditions: 60 mg/kg iv days 1, 8 and 15, FIG. 9
Experimental: as §3

[7] = CSF (brain lateral ventricle microdialysate), Brain (CSF), 40 mg/kg iv
[8] = blood (jugular vein microdialysate), Blood, 40 mg/kg iv

Q: With Cn1c(CCCCCCC(=O)NO)nc2cc(N(CCCl)CCCl)ccc21 [EDO-S101] as the molecule, how does the “% survival rate (surviving fraction) with radiotherapy versus radiotherapy alone” value (shortened to “% survival rate (surviving fraction)”) [1] read?
A: considerably reduced

Q: And the “time to progression (TTP) versus control and TMZ” value [2]?
A: significantly longer

Q: And the “% survival rate (surviving fraction)” value [3]?
A: considerably reduced

Q: And the Cmax ([4]; CSF (brain lateral ventricle microdialysate), Brain (CSF))?
A: 11.2 µM

Q: What about the Tmax [4, 7] of the same molecule?
A: 5.67 min

Q: And the AUC(0-t) [4, 7]?
A: 2.27 µM·h

Q: And the Cmax ([4]; blood (jugular vein microdialysate), Blood)?
A: 184 µM

Q: And the Tmax [4, 8]?
A: 2.33 min

Q: What about the AUC(0-t) [4, 8] of the same molecule?
A: 13.7 µM·h

Q: What about the half-life [4, 7] of the same molecule?
A: ~9 min

Q: And the half-life [4, 8]?
A: ~6 min

Q: What about the Kp ([4]; ratio of CSF and blood AUC, 40 mg/kg iv, read-out: AUC ratio (Brain:Blood), CNS penetration) of the same molecule?
A: 0.165

Q: And the “% survival rate (surviving fraction)” value [5]?
A: considerably reduced

Q: What about the “time to progression (TTP) versus control and TMZ” value [6] of the same molecule?
A: significantly longer
